Where two headings read alike, the source gives them in different places.
Tests used:
[1] = pH 7.4
Experimental: (§1) A solution of the compound (e.g., glucagon or analogues thereof) was prepared in a 0.01M HCl solution. Then 0.1 mL of the stock solution was diluted to 1 mL with HCl (0.01M) and the UV absorbance was measured (to 280 nm) with NanoDrop UV spectrometer (NanoDrop 1000 from Thermo Fischer Company). The pH of the remaining stock solution was adjusted to pH 7 using Na2HPO4 (0.1M) and the solution was allowed to stand overnight at 4° C. Then the solution was centrifuged three times (5 min, 4000 min^−1), 0.1 mL of the supernatant was removed and diluted to 1 mL with HCl solution (0.01M). The final UV absorbance was measured. The solubility was accessible by the following formula: (Final Absorbance/Initial Absorbance)×100=Percent Soluble

[2] = Solubility assay (Example 2, percent soluble by UV absorbance); conditions: PBS buffer (0.1M) at pH 7.4
Experimental: as §1

[3] = Stability assay in NaCl 0.9% aqueous solution (RP-HPLC); type: physicochemical; conditions: 1 mg/mL
Experimental: A solution of 1 mg/mL of peptide or peptidomimetic (glucagon or analog thereof) was prepared in a NaCl 0.9% aqueous solution and stored at room temperature, or 4° C., or 37° C. and or 50° C. The samples were analyzed by RP-HPLC on a Dionex U3000SD using a Macherey-Nagel Nucleodur C18ec column (4×100 mm, 3 μm) at a flow rate of 1 mL/min with UV detection at 200 nm. The mobile phase was composed of 0.1% (v/v) TFA-H2O (Solvent A) and 0.1% (v/v) TFA-CH3CN (Solvent B).

Wistar Rat = test: Rat studies, blood glucose after i.v. dosing (Example 2); type: in vivo; conditions: Wistar rats, 3 hours fasting, 10 nM/kg i.v., FIGS. 12 and 13
Text: The rats (Wistar Rat, males, 8-week old, n=6 or 3) were housed in ventilated and enriched housing cages (310×125×127 mm^3) throughout the experimental phase. […] The rates were acclimated for 5 days with standard diet and tap water.

| Solubility at 1 mg/mL [1] | Solubility at 1 mg/mL [2] | Percentage of peptide remaining ([3]; 4° C., 1 month (T0 = 100%)) | Percentage of peptide remaining ([3]; 4° C., 1 week (T0 = 100%)) | Percentage of peptide remaining ([3]; 4° C., 5 months (T0 = 100%)) | Percentage of peptide remaining ([3]; RT, 1 month (T0 = 100%)) | Percentage of peptide remaining ([3]; RT, 1 week (T0 = 100%)) | Percentage of peptide remaining ([3]; RT, 5 months (T0 = 100%)) | Substance | Glycogen breakdown (increased blood glucose levels) compared to glucagon (Wistar Rat) |
| --- | --- | --- | --- | --- | --- | --- | --- | --- | --- |
| 18% |  |  |  |  |  |  |  | EPHSQGTFTSDYSKYLDSRRAQDFVQWLLNT-NH2 [Peptide 18] |  |
|  | 34% |  |  |  |  |  |  | K*PHSQGTFTSDYSKYLDSRRAQDFVQWLLNT-NH2 [Peptide 22] |  |
|  | 77% | 99% | 99% | 97% | 97% | 99% | 87% | KPKPKPHSQGTFTSDYSKYLDSRRAQDFVQWLLNT-NH2 [Peptide 14] | greater glycogen breakdown |

Source: patent US10889627B2, “Pro-drug peptide with improved pharmaceutical properties” (UREKA SARL, priority 2017, dated 2021)
